Earlier results, collected in article PMC6504684 (Frontiers in Pharmacology, 2019).

Legend:
α9α10 nAChR = conditions: cited from earlier work
GABAβ receptors = conditions: cited from earlier work
[1] = tested on: models of pain and inflammation; conditions: in vivo; cited from earlier work
rat α9α10 nAChR = conditions: cited from earlier work

Vc1.1
selectivity for the α9α10 nAChR, in words (α9α10 nAChR): α9α10 selective | effects via GABAβ receptors, in words (GABAβ receptors): can also be transmitted via inhibition of GABAβ receptors | analgesic and anti-inflammatory effects, in words [1]: analgesic and anti-inflammatory effects | IC50 (rat α9α10 nAChR): 19 nM
